Reference: US20160106722A1, “HUMAN THERAPEUTIC AGENTS” (Life Plus, LLC, priority 2014, published 2016)

Assays:
Assay in all cases: Cancer spheroid cell death test (PrestoBlue)
Assay type in all cases: cell-based
[1] = test system: human ovarian cancer cells (A1847); details: for anticancer effects (cell number versus increasing concentrations): compound alone
Experimental: (§1) Custom-made micromolds with 100 μm diameter wells were loaded with the cells (U.S. Pat. No. 8,735,154, incorporated by reference herein). The media were changed every day by partial replacement. Cell aggregates were allowed to form in the micromolds for 72 hours and then were transferred to a 100 mm non-treated tissue culture dishes for 3 additional days. The spheroids were passed through 70 μm and 100 μm cell strainers (#3431751 and #43152, Corning, Tewksbury, Mass.) and maintained in HEPES Balanced Salt Solution comprised of: 20 mM HEPES, 114 mM NaCl, 4.7 mM KCl, 1.2 mM KH2PO4, 1.16 mM MgSO4, 2.5 mM CaCl2, 25.5 mM NaHCO3 and 0.2% bovine serum albumin (fatty acid free), pH 7.2.
(§2) The cells were treated and tested as set forth in Example 1.

[2] = test system: human prostate cancer cells (22rv1); details: compound alone
Experimental: as §1, §2

[3] = test system: human lung cancer cells (H358); details: compound alone
Experimental: as §1
The lymphomas treatment methods used were identical to those described in Example 2 relative to the pediatric leukemia cells, whereas the lung cancer treatment method was the same as described in Example 1.

SMILES	cell death, doxorubicin alone ([1]; low doses of doxorubicin alone (up to 0.158 μM))	anticancer effects (cell number versus increasing concentrations) [2]	anticancer effects (cell number versus increasing concentrations) [1]	anticancer effects (cell number versus increasing concentrations) [3]
COc1cccc2c1C(=O)c1c(O)c3c(c(O)c1C2=O)C[C@@](O)(C(=O)CO)C[C@@H]3O[C@H]1C[C@H](N)[C@H](O)[C@H](C)O1 [doxorubicin, reference compound]	ineffective			
COc1ccc2c3c([nH]c2c1)C(C)=NCC3 [harmaline]		demonstrated anticancer effects	demonstrated anticancer effects	demonstrated anticancer effects
COc1ccc2c3c([nH]c2c1)[C@@H](C)NCC3 [tetrahydro-harmine]		demonstrated anticancer effects	demonstrated anticancer effects	demonstrated anticancer effects
COc1ccc(C(=O)O)cc1O [isovanillic acid]		demonstrated anticancer effects	demonstrated anticancer effects	demonstrated anticancer effects
CC1=NCCc2c1[nH]c1cc(O)ccc21.Cl [harmalol hydrochloride]		demonstrated anticancer effects	demonstrated anticancer effects	demonstrated anticancer effects
COc1ccc(CO)cc1O [isovanillyl alcohol]		demonstrated anticancer effects	demonstrated anticancer effects	demonstrated anticancer effects
COc1cc(C=O)ccc1O [vanillin]		demonstrated anticancer effects	demonstrated anticancer effects	demonstrated anticancer effects
COc1cccc(C=O)c1O [O-vanillin]		demonstrated anticancer effects	demonstrated anticancer effects	demonstrated anticancer effects
Cc1nccc2c1[nH]c1cc(O)ccc12.Cl [harmole hydrochloride]		demonstrated anticancer effects	demonstrated anticancer effects	demonstrated anticancer effects
